This passage reports EC50 and agonistic activity results from US8829034B2, “Compounds which modulate the CB2 receptor” (Boehringer Ingerlheim International GmbH, priority 2006, dated 2014).

Read-outs that look alike come from different tables or passages of the source.

In general, EC50 refers to the concentration giving half of the maximal effect.

The target in this assay is T1, human CB2R (Homo sapiens, UniProt P34972).
T1 construct: host or cells: CHO cells
Description: CB2R mediated modulation of cAMP synthesis. To be noted: for agonistic activity: found through the use of the above described assays. It is filed as cell-based. In short, it runs like this:
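CHO cells expressing human CB2R were treated with compound for 30 min at 37 °C in buffer containing 1 mM IBMX, 0.25% BSA and 10 uM forskolin. cAMP was measured after lysis. EC50 was taken as 50% inhibition of forskolin-stimulated cAMP, with 100% defined by 1 uM CP55940, using a four-parameter logistic fit.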

T1 sequence (P34972 whole entry): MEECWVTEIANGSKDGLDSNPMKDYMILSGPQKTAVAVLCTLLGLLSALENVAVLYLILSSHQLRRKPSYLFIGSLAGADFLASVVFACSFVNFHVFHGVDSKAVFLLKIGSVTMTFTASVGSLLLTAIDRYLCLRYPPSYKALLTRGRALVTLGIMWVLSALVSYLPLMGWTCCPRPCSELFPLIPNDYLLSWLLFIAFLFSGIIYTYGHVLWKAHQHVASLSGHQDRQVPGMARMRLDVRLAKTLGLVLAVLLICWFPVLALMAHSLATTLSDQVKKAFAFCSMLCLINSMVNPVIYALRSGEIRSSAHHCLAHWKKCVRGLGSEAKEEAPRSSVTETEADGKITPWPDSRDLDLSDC

Turning to `CC(C)CS(=O)(=O)C(C)(C)C(=O)Nc1cc(C(C)(C)C)on1` [N-(5-tert-Butyl-isoxazol-3-yl)-2-methyl-2-(2-methyl-propane-1-sulfonyl)-propionamide], a half-maximal response (EC50) required 44.6 nM and the agonistic activity entry was “agonistic activity”.
In the case of `CC(C)(C)c1cc(NC(=O)C(C)(C)S(=O)(=O)C(C)(C)C)no1` [N-(5-tert-Butyl-isoxazol-3-yl)-2-methyl-2-(2-methyl-propane-2-sulfonyl)-propionamide], the agonistic activity entry is given as “agonistic activity”.
For `CC(C)CCS(=O)(=O)C(C)(C)C(=O)Nc1cc(C(C)(C)C)on1` [N-(5-tert-Butyl-isoxazol-3-yl)-2-methyl-2-(3-methyl-butane-1-sulfonyl)-propionamide], a half-maximal response (EC50) required 0.2 nM and the agonistic activity result is listed as “agonistic activity”.
In the case of `CC(C)(C)c1cc(NC(=O)C(C)(C)S(=O)(=O)CCCc2ccccc2)no1` [N-(5-tert-Butyl-isoxazol-3-yl)-2-methyl-2-(3-phenyl-propane-1-sulfonyl)-propionamide], the agonistic activity result is reported as “agonistic activity”.
Turning to `CC(C)(C)c1cc(NC(=O)C(C)(C)S(=O)(=O)C2(C)CCOCC2)no1` [N-(5-tert-Butyl-isoxazol-3-yl)-2-methyl-2-(4-methyl-tetrahydro-pyran-4-sulfonyl)-propionamide], the EC50 was found to be 9.4 nM and the agonistic activity result is “agonistic activity”.
Take `CC(C)(C)c1cc(NC(=O)C(C)(C)S(=O)(=O)CC2CCNCC2)no1` [N-(5-tert-Butyl-isoxazol-3-yl)-2-methyl-2-(piperidin-4-ylmethanesulfonyl)-propionamide]: the agonistic activity result is “agonistic activity”.
With `CCCS(=O)(=O)C(C)(C)C(=O)Nc1cc(C(C)(C)C)on1` [N-(5-tert-Butyl-isoxazol-3-yl)-2-methyl-2-(propane-1-sulfonyl)-propionamide], the concentration giving a half-maximal response (EC50) came to 61.9 nM and the agonistic activity result is given as “agonistic activity”.
With `CC(C)S(=O)(=O)C(C)(C)C(=O)Nc1cc(C(C)(C)C)on1` [N-(5-tert-Butyl-isoxazol-3-yl)-2-methyl-2-(propane-2-sulfonyl)-propionamide], the agonistic activity result was “agonistic activity”.
As for `CC(C)(C)c1cc(NC(=O)C(C)(C)S(=O)(=O)CC2CCCO2)no1` (centres unmarked) [N-(5-tert-Butyl-isoxazol-3-yl)-2-methyl-2-(tetrahydro-furan-2-ylmethanesulfonyl)-propionamide], the EC50 was 70.5 nM and the agonistic activity result is recorded as “agonistic activity”.
For the compound `CC(C)(C)c1cc(NC(=O)C(C)(C)S(=O)(=O)CC2CCCCO2)no1` (centres unmarked) [N-(5-tert-Butyl-isoxazol-3-yl)-2-methyl-2-(tetrahydro-pyran-2-ylmethanesulfonyl)-propionamide], the concentration giving a half-maximal response (EC50) is 0.2 nM and the agonistic activity result is “agonistic activity”.
As for `CC(C)(C)c1cc(NC(=O)C(C)(C)S(=O)(=O)C2CCOCC2)no1` [N-(5-tert-Butyl-isoxazol-3-yl)-2-methyl-2-(tetrahydro-pyran-4-sulfonyl)-propionamide], the agonistic activity entry is reported as “agonistic activity”. Further, the EC50 (CHO cells expressing human CB2R, inhibition of forskolin-stimulated cAMP synthesis, compounds having agonist activity, read-out: CB2 EC50) was found to be 0.7 nM.
Take `CC(C)(C)c1cc(NC(=O)C(C)(C)S(=O)(=O)CC2CCOCC2)no1` [N-(5-tert-Butyl-isoxazol-3-yl)-2-methyl-2-(tetrahydro-pyran-4-ylmethanesulfonyl)-propionamide]: the agonistic activity result is given as “agonistic activity”.
Consider `CC(C)C(C(=O)Nc1cc(C(C)(C)C)on1)S(=O)(=O)C(C)C` (centres unmarked) [N-(5-tert-Butyl-isoxazol-3-yl)-3-methyl-2-(propane-2-sulfonyl)-butyramide], for which the agonistic activity result was “agonistic activity”.
`CC(C)(C(=O)Nc1nc2ccccc2o1)S(=O)(=O)CC1CCOCC1` [N-Benzooxazol-2-yl-2-methyl-2-(tetrahydro-pyran-4-ylmethanesulfonyl)-propionamide]: the agonistic activity result is reported as “agonistic activity”.
As for `CCCS(=O)(=O)C(C)(C)C(=O)Nc1nc2ccccc2s1` [N-Benzothiazol-2-yl-2-methyl-2-(propane-1-sulfonyl)-propionamide], the agonistic activity result is “agonistic activity”.
Consider `CC(C)S(=O)(=O)C(C)(C)C(=O)Nc1nc2ccccc2s1` [N-Benzothiazol-2-yl-2-methyl-2-(propane-2-sulfonyl)-propionamide], for which the agonistic activity entry is reported as “agonistic activity”.
For the compound `CC(C)(C(=O)Nc1nc2ccccc2s1)S(=O)(=O)CC1CCOCC1` [N-Benzothiazol-2-yl-2-methyl-2-(tetrahydro-pyran-4-ylmethanesulfonyl)-propionamide], the EC50 is 27.9 nM and the agonistic activity result is on record as “agonistic activity”.
In the case of `CC(C)S(=O)(=O)C(C)(C)C(=O)Nc1cc2ccccc2cn1` [N-Isoquinolin-3-yl-2-methyl-2-(propane-2-sulfonyl)-propionamide], the agonistic activity result is “agonistic activity”.
With `CC(C)(C(=O)Nc1cc2ccccc2cn1)S(=O)(=O)CC1CCOCC1` [N-Isoquinolin-3-yl-2-methyl-2-(tetrahydro-pyran-4-ylmethanesulfonyl)-propionamide], it took 99.1 nM to reach a half-maximal effect (EC50) and the agonistic activity entry is recorded as “agonistic activity”.
On to `CCCS(=O)(=O)C(C)(C)C(=O)Nc1cc(CC(C)(C)C)no1` [N-[3-(2,2-Dimethyl-propyl)-isoxazol-5-yl]-2-methyl-2-(propane-1-sulfonyl)-propionamide], for which the agonistic activity result is listed as “agonistic activity”.
Turning to `CC(C)(C)Cc1cc(NC(=O)C(C)(C)S(=O)(=O)CC2CCOCC2)on1` [N-[3-(2,2-Dimethyl-propyl)-isoxazol-5-yl]-2-methyl-2-(tetrahydro-pyran-4-ylmethanesulfonyl)-propionamide], the EC50 is 74.3 nM and the agonistic activity result was “agonistic activity”.
The like results for `CC(C)(C(=O)Nc1nc(-c2ccc(Cl)cc2)cs1)S(=O)(=O)C1CCCC1` [N-[4-(4-Chloro-phenyl)-thiazol-2-yl]-2-cyclopentanesulfonyl-2-methyl-propionamide] were, in that order, 1.5 nM and “agonistic activity”.
On to `CCCS(=O)(=O)C(C)(C)C(=O)Nc1nc(-c2ccc(Cl)cc2)cs1` [N-[4-(4-Chloro-phenyl)-thiazol-2-yl]-2-methyl-2-(propane-1-sulfonyl)-propionamide], for which the EC50 was 13 nM and the agonistic activity entry is listed as “agonistic activity”.
As for `CC(C)S(=O)(=O)C(C)(C)C(=O)Nc1nc(-c2ccc(Cl)cc2)cs1` [N-[4-(4-Chloro-phenyl)-thiazol-2-yl]-2-methyl-2-(propane-2-sulfonyl)-propionamide], the EC50 stood at 44.9 nM and the agonistic activity result is recorded as “agonistic activity”.
As for `CC(C)(C(=O)Nc1nc(-c2ccc(Cl)cc2)cs1)S(=O)(=O)CC1CCOCC1` [N-[4-(4-Chloro-phenyl)-thiazol-2-yl]-2-methyl-2-(tetrahydro-pyran-4-ylmethanesulfonyl)-propionamide], it took 2.2 nM to reach a half-maximal effect (EC50) and the agonistic activity entry is given as “agonistic activity”.
On to `CC(C)(C(=O)Nc1nc(-c2ccc(F)cc2)cs1)S(=O)(=O)CC1CCOCC1` [N-[4-(4-Fluoro-phenyl)-thiazol-2-yl]-2-methyl-2-(tetrahydro-pyran-4-ylmethanesulfonyl)-propionamide], for which the EC50 was 5.5 nM and the agonistic activity result is “agonistic activity”.
